Assay results taken from PubChem BioAssay (NCI).
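Assay format: 96-well plates, 48-hour exposure. TGI is the concentration that stops growth completely.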

Legend:
Assay in all cases: NCI tumour cell line growth inhibition, 48 h
786-0 renal = tested on: 786-0 renal
A498 renal = tested on: A498 renal
A549 NSCLC = tested on: A549 NSCLC
ACHN renal = tested on: ACHN renal
BT-549 breast = tested on: BT-549 breast
CAKI-1 renal = tested on: CAKI-1 renal
CCRF-CEM leukemia = tested on: CCRF-CEM leukemia
COLO 205 colon = tested on: COLO 205 colon
DU-145 prostate = tested on: DU-145 prostate
EKVX NSCLC = tested on: EKVX NSCLC
HCC-2998 colon = tested on: HCC-2998 colon
HCT-116 colon = tested on: HCT-116 colon
HCT-15 colon = tested on: HCT-15 colon
HL-60(TB) leukemia = tested on: HL-60(TB) leukemia
HOP-62 NSCLC = tested on: HOP-62 NSCLC
HOP-92 NSCLC = tested on: HOP-92 NSCLC
HT29 colon = tested on: HT29 colon
IGROV1 ovarian = tested on: IGROV1 ovarian
K-562 leukemia = tested on: K-562 leukemia
KM12 colon = tested on: KM12 colon
LOX IMVI melanoma = tested on: LOX IMVI melanoma
M14 melanoma = tested on: M14 melanoma
MCF7 breast = tested on: MCF7 breast
MDA-MB-231 breast = tested on: MDA-MB-231 breast
MDA-MB-435 = tested on: MDA-MB-435
MDA-N = tested on: MDA-N
MOLT-4 leukemia = tested on: MOLT-4 leukemia
NCI-H226 lung = tested on: NCI-H226 lung
NCI-H23 lung = tested on: NCI-H23 lung
NCI-H460 lung = tested on: NCI-H460 lung
NCI/ADR-RES ovarian = tested on: NCI/ADR-RES ovarian
OVCAR-3 ovarian = tested on: OVCAR-3 ovarian
OVCAR-4 ovarian = tested on: OVCAR-4 ovarian
OVCAR-5 ovarian = tested on: OVCAR-5 ovarian
OVCAR-8 ovarian = tested on: OVCAR-8 ovarian
PC-3 prostate = tested on: PC-3 prostate
RPMI-8226 leukemia = tested on: RPMI-8226 leukemia
RXF 393 renal = tested on: RXF 393 renal
SF-295 CNS = tested on: SF-295 CNS
SK-MEL-2 melanoma = tested on: SK-MEL-2 melanoma
SK-MEL-28 melanoma = tested on: SK-MEL-28 melanoma
SK-MEL-5 melanoma = tested on: SK-MEL-5 melanoma
SK-OV-3 ovarian = tested on: SK-OV-3 ovarian
SN12C renal = tested on: SN12C renal
SNB-19 CNS = tested on: SNB-19 CNS
SW-620 colon = tested on: SW-620 colon
T-47D breast = tested on: T-47D breast
TK-10 renal = tested on: TK-10 renal
U251 CNS = tested on: U251 CNS
UACC-257 melanoma = tested on: UACC-257 melanoma
UACC-62 melanoma = tested on: UACC-62 melanoma
UO-31 renal = tested on: UO-31 renal
MALME-3M melanoma = tested on: MALME-3M melanoma
NCI-H522 lung = tested on: NCI-H522 lung
SF-268 CNS = tested on: SF-268 CNS
SNB-75 CNS = tested on: SNB-75 CNS
SR leukemia = tested on: SR leukemia
HS 578T breast = tested on: HS 578T breast
SF-539 CNS = tested on: SF-539 CNS

Measured: TGI

CCOC(=O)N(CC)c1c(C(F)(F)F)cc(-c2ccccc2)[nH]c1=O
70.1 µM: MOLT-4 leukemia
95.1 µM: EKVX NSCLC
30 µM: HL-60(TB) leukemia
53.9 µM: MDA-N
63.8 µM: CCRF-CEM leukemia
56.7 µM: MDA-MB-435
39.3 µM: RPMI-8226 leukemia
94.8 µM: OVCAR-4 ovarian
not listed: MALME-3M melanoma | NCI-H522 lung | SF-268 CNS | SNB-75 CNS | SR leukemia | HS 578T breast | SF-539 CNS
> 100 µM: all other assays above

C=CCN1CC2CN=NC2(C#N)C1 (configuration not stated)
not listed: HOP-92 NSCLC | M14 melanoma | RPMI-8226 leukemia | SK-OV-3 ovarian | HS 578T breast | SF-539 CNS
> 100 µM: all other assays above

COC(=O)c1ccc(C)cc1C1CN=NC12Cc1cc(C)c(C)cc1C2=O (configuration not stated)
81.7 µM: HCC-2998 colon
99.7 µM: EKVX NSCLC
78.4 µM: NCI-H522 lung
96.6 µM: MDA-MB-435
55.2 µM: HL-60(TB) leukemia
81.4 µM: MDA-MB-231 breast
93 µM: MOLT-4 leukemia
49.2 µM: SK-MEL-5 melanoma
not listed: BT-549 breast | COLO 205 colon | PC-3 prostate | SK-MEL-2 melanoma | SK-OV-3 ovarian | T-47D breast | UACC-62 melanoma
> 100 µM: all other assays above

O=c1c2cc(-c3ccccc3)cnc2sn1-c1ccc([N+](=O)[O-])cc1
95.1 µM: U251 CNS
60.2 µM: OVCAR-3 ovarian
82.1 µM: RXF 393 renal
75.4 µM: NCI-H522 lung
81.7 µM: HOP-62 NSCLC
not listed: LOX IMVI melanoma | SK-MEL-5 melanoma | TK-10 renal | HS 578T breast
> 100 µM: all other assays above
